Experimental data: BindingDB's records for doi:10.1021/acs.jmedchem.0c00435 (University of Bonn, 2020)

Experiment: Antagonist activity P2X1 receptor in human platelets assessed as inhibition of ADP-induced platelet aggregation pre-incubated for 30 mins before ADP stimulation by aggregometry

SMILES | IC50 [µM]
O=C(Nc1cc(Cl)cc(Cl)c1)c1cc(Cl)ccc1O | > 20
O=C(Nc1cc(C(F)(F)F)cc(C(F)(F)F)c1)c1cc(Cl)ccc1O [TCMDC-125465] | 4.73

More lines, now with the values ahead:

IC50 [µM] | SMILES
5.47 | O=C(Nc1cc(C(F)(F)F)cc(C(F)(F)F)c1)c1ccc(Cl)cc1O
> 20 | O=C(Nc1cc(F)cc(F)c1)c1cc(Cl)ccc1O
> 20 | O=S(=O)(Nc1cc(C(F)(F)F)cc(C(F)(F)F)c1)c1cc(Cl)ccc1O

Experiment: Antagonist activity P2X1 receptor in Apyrase pre-treated human platelets assessed as inhibition of TRAP6-induced platelet aggregation pre-incubated for 30 mins before TRAP6 stimulation by aggregometry

SMILES | IC50 [µM]
O=C(Nc1cc(Cl)cc(Cl)c1)c1cc(Cl)ccc1O | > 10
O=C(Nc1cc(C(F)(F)F)cc(C(F)(F)F)c1)c1ccccc1 [N-(3,5-Bis(Trifluoromethyl)Phenyl)Benzamide] | 5.57
O=C(Nc1cc(C(F)(F)F)cc(C(F)(F)F)c1)c1cc(Cl)ccc1O [TCMDC-125465] | 3.64

Results, then the molecule that gave them:

IC50 [µM] | SMILES
4.8 | O=C(Nc1cc(C(F)(F)F)cc(C(F)(F)F)c1)c1ccc(Cl)cc1O
> 10 | O=C(Nc1cc(F)cc(F)c1)c1cc(Cl)ccc1O
> 10 | O=S(=O)(Nc1cc(C(F)(F)F)cc(C(F)(F)F)c1)c1cc(Cl)ccc1O

Experiment: Antagonist activity P2X1 receptor in Apyrase pre-treated human platelets assessed as inhibition of collagen-induced platelet aggregation pre-incubated for 30 mins before collagen stimulation by aggregometry

SMILES | IC50 [µM]
O=C(Nc1cc(Cl)cc(Cl)c1)c1cc(Cl)ccc1O | 3.03
O=C(Nc1cc(C(F)(F)F)cc(C(F)(F)F)c1)c1ccccc1 [N-(3,5-Bis(Trifluoromethyl)Phenyl)Benzamide] | 2.1
O=C(Nc1cc(C(F)(F)F)cc(C(F)(F)F)c1)c1cc(Cl)ccc1O [TCMDC-125465] | 0.57

Results, then the molecule that gave them:

IC50 [µM] | SMILES
1.14 | O=C(Nc1cc(C(F)(F)F)cc(C(F)(F)F)c1)c1ccc(Cl)cc1O
3.13 | O=S(=O)(Nc1cc(C(F)(F)F)cc(C(F)(F)F)c1)c1cc(Cl)ccc1O
